Results reported in patent publication US8410126B2, “Pyrimidine inhibitors of PKTK2” (Boehringer Ingelheim International GmbH, priority 2009, dated 2013).

molecular target: T1, PTK2 (Homo sapiens, UniProt Q05397); assay: PTK2 enzyme test Assay 2 (DELFIA, poly-Glu-Tyr substrate, PT66 antibody); type: biochemical; settings: Assay 2 (values marked *); 1 h pre-incubation, 50 μM ATP mix, final DMSO 0.5%
T1 construct: purchased Invitrogen PV3832
Description: This test uses active PTK2 enzyme (Invitrogen Code PV3832) and poly-Glu-Tyr (4:1, Sigma P-0275) as the kinase substrate. The kinase activity is detected by means of the phosphorylation of the substrate in a DELFIA™ assay. The phosphorylated substrate is detected with the europium-labelled phosphotyrosine antibody PT66 (Perkin Elmer, No.: AD0040).
In order to determine concentration-activity curves with PTK2-inhibitors the compounds are serially diluted first of all in 100% DMSO and then in kinase dilution buffer (20 mM TRIS/HCl pH 7.5, 0.1 mM EDTA, 0.1 mM EGTA, 0.286 mM sodium orthovanadate, 10% glycerol with the addition of freshly prepared BSA (fraction V, 1 mg/mL) and DTT (1 mM)) and 10 μL of each dilution are dispensed per well in a 96-well microtitre plate (clear U-shaped base plate, Greiner No. 650101) (the inhibitors are tested in duplicates) and mixed with 10 μL/well of PTK2 kinase (0.01 μg/well). PTK2 kinase is diluted accordingly beforehand with kinase dilution buffer. The diluted PTK2 inhibitor and the PTK2 kinase are pre-incubated for 1 h at RT and shaken at 500 revolutions per min. Then 10 μL/well poly-Glu-Tyr substrate (25 μg/well poly-Glu-Tyr, 0.05 μg/well biotinylated poly-Glu-Tyr dissolved in 250 mM TRIS/HCl pH 7.5, 9 mM DTT) are added. The reaction is started by the addition of 20 μL of ATP Mix (30 mM TRIS/HCl pH 7.5, 0.02% Brij, 0.2 mM sodium orthovanadate, 10 mM magnesium acetate, 0.1 mM EGTA, 1× phosphatase inhibitor cocktail 1 (Sigma, No.: P2850), 50 μM ATP (Sigma, No.: A3377; 15 mM stock solution))—the final concentration of DMSO is 0.5%. After 1 h kinase reaction (the plates are shaken at 500 rpm), the reaction is stopped by the addition of 12 μL/well of 100 mM EDTA, pH 8, and shaken for a further 5 min at RT (500 U/min). 55 μL of the reaction mixture are transferred into a streptavidin plate (Strepta Well High Bind (transparent, 96-well) made by Roche, No.: 11989685001) and incubated for 1 h at RT (shaking at 500 rpm). Then the microtitre plate is washed five times with 200 μL/well D-PBS (Invitrogen, No. 14190). 100 μL of a solution containing DELFIA Eu-N1 Anti-Phosphotyrosine PT66 antibody (Perkin Elmer, No.: AD0040, diluted 1:9000 in DELFIA test buffer (Perkin Elmer, No.: 1244-111)) is then added and it is incubated for 1 h at RT (shaking at 500 rpm). Then the plate is washed five times with 200 μL/well DELFIA washing buffer (Perkin Elmer, No.: 1244-114), 200 μL/well strengthening solution (Perkin Elmer, No.: 1244-105) is added and the whole is incubated for 10 min at RT (shaking at 300 rpm).
The time-delayed europium fluorescence is then measured in a microtitre plate reader (VICTOR^3, Perkin Elmer). The positive control consists of wells that contain solvent (0.5% DMSO in test buffer) and display uninhibited kinase activity. Wells that contain test buffer instead of enzyme act as a control for the background kinase activity.
The IC50 values are determined from concentration-activity analyses by iterative calculation using a sigmoid curve analysis algorithm (FIFTY, based on GraphPAD Prism Version 3.03) with a variable Hill coefficient.

T1 sequence (Q05397 whole entry): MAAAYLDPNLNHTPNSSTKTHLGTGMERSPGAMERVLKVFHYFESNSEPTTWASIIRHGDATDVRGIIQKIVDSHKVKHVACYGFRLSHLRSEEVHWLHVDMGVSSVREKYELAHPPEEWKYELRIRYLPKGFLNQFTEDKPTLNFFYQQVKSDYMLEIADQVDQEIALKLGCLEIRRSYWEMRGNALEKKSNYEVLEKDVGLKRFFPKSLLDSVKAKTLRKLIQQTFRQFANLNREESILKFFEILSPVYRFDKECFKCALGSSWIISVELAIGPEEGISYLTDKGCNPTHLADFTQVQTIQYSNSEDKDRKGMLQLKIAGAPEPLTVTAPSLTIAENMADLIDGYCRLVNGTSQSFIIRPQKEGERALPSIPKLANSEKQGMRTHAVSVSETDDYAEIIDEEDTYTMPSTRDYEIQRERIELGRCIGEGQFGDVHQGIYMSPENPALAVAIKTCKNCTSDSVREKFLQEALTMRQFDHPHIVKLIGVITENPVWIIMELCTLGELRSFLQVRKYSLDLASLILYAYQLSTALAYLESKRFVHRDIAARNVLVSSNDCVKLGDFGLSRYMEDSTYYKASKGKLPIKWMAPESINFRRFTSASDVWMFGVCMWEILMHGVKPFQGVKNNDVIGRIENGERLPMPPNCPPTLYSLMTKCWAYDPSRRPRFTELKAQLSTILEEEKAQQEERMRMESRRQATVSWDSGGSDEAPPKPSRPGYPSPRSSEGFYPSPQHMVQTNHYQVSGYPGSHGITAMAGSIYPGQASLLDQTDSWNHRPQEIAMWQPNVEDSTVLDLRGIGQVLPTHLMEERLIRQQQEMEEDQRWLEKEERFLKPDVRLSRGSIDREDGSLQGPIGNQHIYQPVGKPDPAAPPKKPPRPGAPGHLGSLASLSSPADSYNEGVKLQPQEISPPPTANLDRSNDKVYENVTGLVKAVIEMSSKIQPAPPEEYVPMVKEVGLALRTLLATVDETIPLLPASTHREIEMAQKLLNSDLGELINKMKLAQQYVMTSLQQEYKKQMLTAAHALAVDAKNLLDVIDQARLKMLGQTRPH

Row | SMILES | IC50 [nM]
1 | COc1cc(N2CCN(C(C)(C)C)CC2)ccc1Nc1ncc(C(F)(F)F)c(N[C@@H]2Cc3ccccc3[C@H]2N(C)S(C)(=O)=O)n1 [Example I-66, N-((1R,2R)-2-{2-[4-(4-tert-butyl-piperazin-1-yl)-2-methoxy-phenylamino]-5-trifluoromethyl-pyrimidin-4-ylamino}-indan-1-yl)-N-methyl-methanesulphonamide] | 0.6
2 | COc1cc(C(=O)NCCN(C)C)ccc1Nc1ncc(C(F)(F)F)c(N[C@@H]2CCc3ccccc3[C@H]2N(C)S(C)(=O)=O)n1 [Example I-94] | 16
3 | COc1cc(N2CCNCC2=O)ccc1Nc1ncc(C(F)(F)F)c(N[C@@H]2Cc3ccccc3[C@H]2N(C)S(C)(=O)=O)n1 [Example I-87] | 0.48
4 | COc1cc(NC(=O)N(C)C)ccc1Nc1ncc(C(F)(F)F)c(N[C@@H]2Cc3ccccc3[C@H]2N(C)S(C)(=O)=O)n1 [Example I-79] | 0.23
5 | COc1cc(NC(=O)C2CCN(C)C2)ccc1Nc1ncc(C(F)(F)F)c(N[C@@H]2Cc3ccccc3[C@H]2N(C)S(C)(=O)=O)n1 (stereo partly shown) [Example I-72] | 0.74
6 | COc1ccc(C(=O)N(C)CCN2CCCC2)cc1Nc1ncc(C(F)(F)F)c(N[C@@H]2Cc3ccccc3[C@H]2N(C)S(C)(=O)=O)n1 [Example I-85] | 0.44
7 | COc1cc(N2CCNCC2)c(Cl)cc1Nc1ncc(C(F)(F)F)c(N[C@@H]2Cc3ccccc3[C@H]2N(C)S(C)(=O)=O)n1 [Example I-76, N-{(1R,2R)-2-[2-(5-chloro-2-methoxy-4-piperazin-1-yl-phenylamino)-5-trifluoromethyl-pyrimidin-4-ylamino]-indan-1-yl}-N-methyl-methanesulphonamide] | 0.76
8 | COc1cc(N2CCN(C(C)(C)C)CC2)ccc1Nc1ncc(C(F)(F)F)c(N[C@@H]2Cc3ccccc3[C@H]2NS(C)(=O)=O)n1 [Example I-91] | 0.75
9 | CCc1cc(Nc2ncc(C(F)(F)F)c(N[C@@H]3Cc4ccccc4[C@H]3N(C)S(C)(=O)=O)n2)c(OC)cc1N1CCN(C(C)(C)C)CC1 [Example I-89] | 0.68
10 | COc1ccc(NC(=O)C2CCN(C)C2)cc1Nc1ncc(C(F)(F)F)c(N[C@@H]2Cc3ccccc3[C@H]2N(C)S(C)(=O)=O)n1 (stereo partly drawn) [Example I-61, 1-methyl-pyrrolidine-3-carboxylic acid (3-{4-[(1R,2R)-1-(methanesulphonyl-methyl-amino)-indan-2-ylamino]-5-trifluoromethyl-pyrimidin-2-ylamino}-4-methoxy-phenyl)-amide] | 0.43
11 | COc1cc(N2CCNCC2)c(C)cc1Nc1ncc(C(F)(F)F)c(N[C@@H]2Cc3ccccc3[C@H]2N(C)S(C)(=O)=O)n1 [Example I-74, N-{(1R,2R)-2-[2-(2-methoxy-5-methyl-4-piperazin-1-yl-phenylamino)-5-trifluoromethyl-pyrimidin-4-ylamino]-indan-1-yl}-N-methyl-methanesulphonamide] | 0.66

The next lines start with the values.

Row | IC50 [nM] | SMILES
12 | 0.26 | CN1CCC(NC(=O)c2cccc(Nc3ncc(C(F)(F)F)c(N[C@@H]4Cc5ccccc5[C@H]4N(C)S(C)(=O)=O)n3)c2)CC1 [Example I-88]
13 | 0.3 | COc1cc(F)c(C(=O)NC2CCN(C)CC2)cc1Nc1ncc(Cl)c(N[C@@H]2Cc3ccccc3[C@H]2N(C)S(C)(=O)=O)n1 [Example I-75, 5-{5-chloro-4-[(1R,2R)-1-(methanesulphonyl-methyl-amino)-indan-2-ylamino]-pyrimidin-2-ylamino}-2-fluoro-4-methoxy-N-(1-methyl-piperidin-4-yl)-benzamide]
14 | 0.6 | COc1ccc(C(=O)NC2CCN(C)CC2)cc1Nc1ncc(Cl)c(N[C@@H]2Cc3ccccc3[C@H]2N(C)S(C)(=O)=O)n1 [Example I-93]
15 | 0.36 | COc1cc(F)c(C(=O)NC2CCN(C)CC2)cc1Nc1ncc(C(F)(F)F)c(N[C@@H]2Cc3ccccc3[C@H]2N(C)S(C)(=O)=O)n1 [Example I-80, 2-fluoro-5-{4-[(1R,2R)-1-(methanesulphonyl-methyl-amino)-indan-2-ylamino]-5-trifluoromethyl-pyrimidin-2-ylamino}-4-methoxy-N-(1-methyl-piperidin-4-yl)-benzamide]
16 | 0.36 | COc1cc(C)c(C(=O)NC2CCOCC2)cc1Nc1ncc(C(F)(F)F)c(N[C@@H]2Cc3ccccc3[C@H]2N(C)S(C)(=O)=O)n1 [Example I-82]
